Measurements published in US20090041719A1, “Method for screening therapeutic agent for glomerular disorder” (priority 2006, published 2009).
Values joined by “and” are separate entries in the source; they are usually repeats but may differ in a detail not shown here. Equal entries are not always repeated.

Tests used:
[1] = tested on: rBAT; assay: rBAT on large-cell fraction of interferon γ-stimulated THP-1, peak value by FACScan; assay type: cell-based, human
Method: (§1) The same procedures as in Experimental Example 2 were taken except the following conditions: human leukemia culture cell line THP-1 was used instead of the human peripheral blood mononuclear cells; the final addition concentration of the test compound (6-2) was set to 100 nM; fetal bovine serum was used instead of the human AB serum; and human recombinant interferon γ (PHP050, Serotec) (final concentration: 100 ng/ml) was used instead of LPS. Also, using rabbit anti-human 4F2hc polyclonal antibodies (see Biol Pharm Bull 30: 415-422, 2007) as the primary antibody, the peak value of HAT expressed on the fraction of large-cells in human leukemia culture cell strain THP-1, compared with those not stimulated with LPS, was measured. As a control, the one with no test-compound (DMSO alone) was used, and the rabbit anti-human rBAT polyclonal antibodies were obtained in the same manner as in Experimental Example 2.

[2] = tested on: puromycin-induced acute nephrosis model; assay: Puromycin-induced acute nephrosis model: urinary albumin excretion; assay type: in vivo, SD (Sprague-Dawley) rat
Method: It is known that a single intravenous dose of 50 mg/kg of puromycin to a 5-week-old SD (Sprague-Dawley) male rat damages the glomerular epithelial cells, causing severe proteinuria peaking from day 6 to day 14 and gradually decreasing thereafter, and again showing tubular proteinuria (see J. R. Diamond, and M. J. Karnovsky: Focal and segmental glomerulosclerosis following a single intravenous dose of puromycin aminonucleoside, Am. J. Pathol; 1986; 122; 481-487) (hereinafter, this model will be referred to as puromycin-induced acute nephrosis model). Using the above puromycin-induced acute nephrosis model as a model of glomerular lesions, the combinational effect of interferon γ and the composition for preventing, ameliorating, or treating glomerular lesions or disease of kidney was examined. To a 5-week-old SD (Sprague-Dawley) male rat, 30 mg/kg/day of said composition (6-2) was subcutaneously administered every day from five days before the administration of puromycin, and at the same time, 0.25 ml (2.3×10^4U) of rat recombinant interferon γ (by PeproTeck, final concentration: 9.09 μg/ml) was intraperitoneally administered on alternate days from five days before the administration of puromycin, followed by a single intravenous dose of 50 mg/kg of puromycin. Even after the administration of puromycin, the same amount of the composition (6-2) and the rat recombinant interferon γ were continuously administered every day and on alternate days respectively. On days 6, 12, and 19 after the administration of puromycin, 24-hour urine collection was performed to measure the amount of rat urinary albumin excretion by ELIZA method. At the same time, the urinary creatinine concentration was also measured by enzyme method. As indexes of glomerular epithelial damage, albumin excretion and the ratio of urinary albumin excretion to urinary creatinine were compared.

[3] = tested on: FRP-1/CD98/4F2hc; assay: FACScan of FRP-1/CD98/4F2hc expression on macrophage fraction of LPS-stimulated human PBMC (monoclonal antibodies 4-5-1, 6-1-3, HBJ-127); assay type: cell-based
[4] = tested on: 4F2hc; assay: 4F2hc on large-cell fraction of interferon γ-stimulated THP-1, peak value by FACScan; assay type: cell-based, human
Method: as §1

[5] = THP-1 + interferon γ, summary of Table 4
[6] = human PBMC + LPS 80 μg/ml, 6-day culture, test compound 10 nM

## O=C1CCC(F)(C(=O)OCc2ccccc2)O1 (stereo not drawn) [Compound (6-2)]
[1]; THP-1 + human recombinant interferon γ 100 ng/ml, test compound 100 nM, solvent control 55
  Change in HAT expressed on large-cell fraction of THP-1 (peak value by FACScan), rBAT: 50
[1]; [5]
  amount of rBAT (in words): without any influence
[2]; group average
  Albumin Excretion, Day 6: 98.3 mg/day
  Albumin Excretion, Day 12: 182.6 mg/day
  Albumin Excretion, Day 19: 101.0 mg/day
  Urinary Albumin Excretion/Urinary Creatinine, Day 6: 16.7 1/Cr
  Urinary Albumin Excretion/Urinary Creatinine, Day 12: 29.1 1/Cr
  Urinary Albumin Excretion/Urinary Creatinine, Day 19: 15.8 1/Cr
[2]; individual animal
  Urinary Albumin Excretion/Urinary Creatinine, Day 6: 12.1 1/Cr and 21.2 1/Cr
  Urinary Albumin Excretion/Urinary Creatinine, Day 12: 22.3 1/Cr and 35.8 1/Cr
  Urinary Albumin Excretion/Urinary Creatinine, Day 19: 11.0 1/Cr and 20.5 1/Cr
[2]; individual animal, 24-hour urine, day 6 after puromycin, compound 30 mg/kg/day s.c., 30 mg/kg/day
  Albumin Excretion, Day 6: 80.7 mg/day and 115.9 mg/day
[2]; individual animal, 24-hour urine, day 12 after puromycin, compound 30 mg/kg/day s.c., 30 mg/kg/day
  Albumin Excretion, Day 12: 136.0 mg/day and 229.1 mg/day
[2]; individual animal, 24-hour urine, day 19 after puromycin, compound 30 mg/kg/day s.c., 30 mg/kg/day
  Albumin Excretion, Day 19: 73.4 mg/day and 128.6 mg/day
[3]; a different normal human PBMC, where expression was enhanced to 90% or more, not shown in Table
  expression of the FRP-1/CD98/4F2hc molecule lowered to: ≤ 5%
[3]; [6]
  Migration of FRP-1/CD98/4F2hc expression of macrophage fraction by FACScan (migration rate %), monoclonal antibody 4-5-1 (FRP-1): 32.7%
  Migration of FRP-1/CD98/4F2hc expression of macrophage fraction by FACScan (migration rate %), monoclonal antibody 6-1-3 (FRP-1): 29.8%
  Migration of FRP-1/CD98/4F2hc expression of macrophage fraction by FACScan (migration rate %), monoclonal antibody HBJ-127 (CD98): 11.0%
[3]; stimulated and cultured with LPS, summary of Table 1
  expression of FRP-1/CD98/4F2hc on macrophage fraction of human PBMC (in words): increased the expression
[4]; THP-1 + human recombinant interferon γ 100 ng/ml, test compound 100 nM, solvent control 16
  Change in HAT expressed on large-cell fraction of THP-1 (peak value by FACScan), 4F2hc: 10
[4]; [5]
  amount of 4F2hc in the heavy chain of HAT (in words): selectively decreased
